From patent US4069223A, “4-Aminomethyl-1-(3,3,3-triarylpropyl)-4-arylpiperidine and derivatives thereof” (G. D. Searle & Co., priority 1977, dated 1978)

What was measured:
[1] = system: castor oil induced diarrhea; experiment: Castor oil induced diarrhea in the rat; assay type: in vivo, Charles River male rats; conditions: for ED50: Rattus norvegicus, po, 1 hour before castor oil; for Potency: relative to diphenoxylate hydrochloride
Protocol: Adult Charles River male rats were fasted in community cages for 24 hours prior to the test, with free access to water. The compound was administered intragastrically (suspended on 0.5% methycellulose) one hour prior to the administration of castor oil at the dose of 1.0 ml/rat intragastrically. The rats were then observed for the presence or absence of diarrhea, at hourly intervals for up to 8 hours past administration of castor oil. The median effective dose values at each hourly interval were calculated for the compound using the method of Berkson (1953). […] For example:
Comparative Oral Antidiarrheal Potency and Duration of 4-aminomethyl-1-1-(3,3,3-triphenylpropyl)-4-phenylpiperidine hydrochloride (Compound A) to Diphenoxylate hydrochloride in Rat Castor Oil Diarrhea Test.

mouse = experiment: Tail clip test (analgesic effect); assay type: in vivo; conditions: 100 mpk, intragastric
Protocol: The assessment of the analgesic effect of the present compounds was conducted in the tail clip test.
A specific clip is applied to the base of the tail of the mouse (adult male weighing 18-25 grams) and the time for the animal to turn around to bite at it is measured. The sensitivity of each mouse is determined one-half hour prior to drug administration. Only those mice attempting to bite the clip are included in the experiment. The test compound is then administered intragastrically and the response to placement of the clip is determined at 30, 60, 90 and 120 minutes after treatment. A response is considered positive if the animal takes more than 2 times the pre-drug time to bite at the clip at any of these time intervals. A test compound is considered active when 50 percent or more of the animals used show a positive response.

Q: Which ED50 ([1]; 2 hours after castor oil, intragastric) does the source give for `Cl.NCC1(c2ccccc2)CCN(CCC(c2ccccc2)(c2ccccc2)c2ccccc2)CC1` [Compound A, 4-aminomethyl-1-(3,3,3-triphenylpropyl)-4-phenylpiperidine hydrochloride] here?
A: 3.53 mg/kg

Q: And the ED50 ([1]; 3 hours after castor oil, intragastric)?
A: 4.24 mg/kg

Q: And the ED50 ([1]; 4 hours after castor oil, intragastric)?
A: 5.4 mg/kg

Q: What about the ED50 ([1]; 5 hours after castor oil, intragastric) of the same compound?
A: 5.58 mg/kg

Q: What about the ED50 ([1]; 6 hours after castor oil, intragastric) of the same compound?
A: 5.79 mg/kg

Q: What about the ED50 ([1]; 7 hours after castor oil, intragastric) of the same compound?
A: 7.48 mg/kg

Q: What about the ED50 ([1]; 8 hours after castor oil, intragastric) of the same compound?
A: 7.48 mg/kg

Q: And the “inhibition of gastrointestinal motility” value ([1]; rat castor oil test, intragastric)?
A: found to inhibit gastrointestinal motility

Q: And the Potency ([1]; 2 hours after castor oil)?
A: 0.06

Q: And the Potency ([1]; 3 hours after castor oil)?
A: 0.11

Q: And the Potency ([1]; 4 hours after castor oil)?
A: 0.16

Q: What about the Potency ([1]; 5 hours after castor oil) of the same compound?
A: 0.24

Q: And the Potency ([1]; 6 hours after castor oil)?
A: 0.29

Q: What about the Potency ([1]; 7 hours after castor oil) of the same compound?
A: 0.25

Q: What about the Potency ([1]; 8 hours after castor oil) of the same compound?
A: 0.26

Q: What about the analgesic effect (mouse) of the same compound?
A: weak analgesic effect
